Test results: PubChem BioAssay AID1259246 (Broad Institute, 2017)
Records with an inconclusive call do not appear. Active and inactive are the calls of the source.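 The calls were made as follows: active = valid dose-response fit whose half-maximal growth-inhibiting concentration is at or below a set limit above the top tested dose; inconclusive = flat fit with effect between 30 and 70%, or poor fit; inactive = half-maximal concentration above a set limit.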

Test: antibacterial activity against Clostridioides difficile – 10-point retest, dose response (AID 1259246)
Conditions: Clostridioides difficile clinical isolate growth, OD600, 24 h

Structure (SMILES)	activity change, negative = inhibition (at 120 µM (top of the series))	other results
CC(C)CC#Cc1ccc2c(c1)O[C@@H](CN(C)Cc1ccc(C(=O)O)cc1)[C@H](C)CN([C@@H](C)CO)S2(=O)=O		activity change, negative = inhibition (at 60 µM (top of the series)): 2.34% (inactive)
O=C(N[C@H]1CC[C@H](CCNS(=O)(=O)Cc2ccccc2)O[C@H]1CO)c1ccc2c(c1)OCO2		activity change, negative = inhibition (at 135 µM (top of the series)): -7.24% (inactive)
CC(C)NC(=O)Nc1ccc2c(c1)CC(=O)N([C@H](C)CO)C[C@@H](C)[C@@H](CN(C)Cc1ccc(-c3ccccc3)cc1)O2	20.5% (inactive)	
CN(C)CC(=O)N1[C@@H](C#N)[C@H](c2ccc(C#CC3CCCCC3)cc2)[C@@H]1CO		activity change, negative = inhibition (at 60 µM (top of the series)): 0.345% (inactive)
O=C(O)C[C@H]1C[C@@H]2c3cc(NC(=O)C4CCC4)ccc3O[C@@H]2[C@@H](CO)O1		activity change, negative = inhibition (at 60 µM (top of the series)): -2.3% (inactive)
COc1ccc(CNC(=O)C[C@H]2C[C@@H]3c4cc(NC(=O)NC5CCCC5)ccc4O[C@@H]3[C@@H](CO)O2)cc1	6.58% (inactive)	
CC(C)CC#Cc1ccc2c(c1)O[C@@H](CN(C)Cc1ccc3c(c1)OCO3)[C@H](C)CN([C@@H](C)CO)S2(=O)=O	11% (inactive)	
C[C@@H]1CN([C@H](C)CO)C(=O)c2cccc(NC(=O)Nc3ccccc3)c2O[C@@H]1CN(C)Cc1ccc(Oc2ccccc2)cc1	32.9% (inactive)	
C[C@@H]1CN([C@H](C)CO)S(=O)(=O)c2ccc(C#CC3CCCC3)cc2O[C@H]1CN(C)C	4.79% (inactive)	
CC(C)CC#Cc1ccc2c(c1)O[C@@H](CN(C)Cc1cccnc1)[C@H](C)CN([C@@H](C)CO)S2(=O)=O	29.9% (inactive)	
C[C@H]1CN([C@@H](C)CO)C(=O)c2cccc(NC(=O)Nc3ccc(C(F)(F)F)cc3)c2O[C@@H]1CN(C)Cc1ccc(-c2ccccc2)cc1	31.9% (inactive)	
O=C(O)C[C@H]1C[C@@H]2c3cc(NC(=O)NC4CCCC4)ccc3O[C@@H]2[C@@H](CO)O1	2.6% (inactive)	
Cc1ccc(-c2ccc3c(c2)O[C@@H](CN(C)Cc2cccnc2)[C@H](C)CN([C@@H](C)CO)S3(=O)=O)cc1	10.2% (inactive)	
C[C@@H]1CN([C@H](C)CO)C(=O)Cc2cc(NC(=O)CCCN(C)C)ccc2O[C@H]1CN(C)C	0.476% (inactive)	
CC(C)CC#Cc1ccc2c(c1)O[C@H](CN(C)Cc1ccccc1)[C@@H](C)CN([C@@H](C)CO)S2(=O)=O	35.7% (inactive)	
C[C@@H]1CN([C@@H](C)CO)C(=O)Cc2cc(NC(=O)CCCN(C)C)ccc2O[C@H]1CN(C)Cc1ccc(C(F)(F)F)cc1	23.8% (inactive)	
CO[C@H]1CN(C)C(=O)c2ccc(NC(=O)c3ccc(-c4ccccc4)cc3)cc2OC[C@H](C)NC[C@H]1C	4.8% (inactive)	
C[C@@H]1CN([C@H](C)CO)C(=O)c2cccc(NC(=O)Nc3ccc(C(F)(F)F)cc3)c2O[C@H]1CN(C)Cc1ccc(-c2ccccc2)cc1	8.44% (inactive)	
C[C@@H]1CN([C@@H](C)CO)S(=O)(=O)c2ccc(C#CCN(C)C)cc2O[C@@H]1CN(C)Cc1ccc(F)cc1	4.72% (inactive)	
C[C@H](CO)N1C[C@H](C)[C@@H](CN(C)C(=O)Nc2ccc(F)cc2)OCCCC[C@H](C)Oc2ccc(NC(=O)Nc3cccc4ccccc34)cc2C1=O	40.4% (inactive)	

Structure (SMILES)	activity change, negative = inhibition (at 120 µM (top of the series))	other results
C[C@H](CO)N1C[C@H](C)[C@H](CN(C)Cc2ccc(C(=O)O)cc2)Oc2cc(/C=C/c3ccccc3)ccc2S1(=O)=O	-7.29% (inactive)	
C[C@@H]1CN([C@@H](C)CO)C(=O)Cc2cc(NC(=O)C3CC3)ccc2O[C@@H]1CN(C)Cc1ccccc1		activity change, negative = inhibition (at 135 µM (top of the series)): 0.355% (inactive)
COc1ccccc1C#Cc1ccc([C@H]2[C@@H](C#N)N(C(=O)C3CCCCC3)[C@H]2CO)cc1		activity change, negative = inhibition (at 60 µM (top of the series)): 5.31% (inactive)
CO[C@H]1CN(C)C(=O)c2cc(NC(=O)c3ccc(Oc4ccccc4)cc3)ccc2OC[C@H](C)NC[C@H]1C	31.6% (inactive)	
CC1=CC2(CO)C(=O)[C@]3(CO3)[C@H]1[C@H]1[C@]2(C)C=C(CO)C(=O)[C@]12CO2	10.8% (inactive)	
C[C@@H]1CN([C@H](C)CO)C(=O)c2cc(NC(=O)Nc3ccc4c(c3)OCO4)ccc2O[C@H]1CN(C)Cc1ccccc1		activity change, negative = inhibition (at 135 µM (top of the series)): -5.34% (inactive)
CN(C)CC(=O)N1[C@H](C#N)[C@H](c2ccc(C#CC3CCCCC3)cc2)[C@H]1CO		activity change, negative = inhibition (at 60 µM (top of the series)): 6.71% (inactive)
COc1ccc(-c2ccc([C@H]3[C@H](C#N)N(C(=O)NC4CCCCC4)[C@H]3CO)cc2)cc1	7.21% (inactive)	
C[C@H]1CN([C@@H](C)CO)C(=O)c2cccc(NC(=O)Nc3ccc4c(c3)OCO4)c2O[C@@H]1CN(C)Cc1ccc(-c2ccccc2)cc1	2.11% (inactive)	
C[C@@H]1CN([C@H](C)CO)C(=O)c2cc(NC(=O)Nc3cccc4ccccc34)ccc2O[C@@H](C)CCCCO[C@H]1CN(C)S(C)(=O)=O	1.6% (inactive)	
COc1ccc(-c2ccc([C@H]3[C@H](C#N)N(C(=O)C4CCCC4)[C@H]3CO)cc2)cc1	5.91% (inactive)	
C[C@H](CO)N1C[C@H](C)[C@H](CN(C)Cc2ccc(-c3ccccc3)cc2)Oc2ccc(NC(=O)C3CC3)cc2CC1=O		activity change, negative = inhibition (at 135 µM (top of the series)): 13.1% (inactive)
C[C@@H]1CN([C@@H](C)CO)C(=O)Cc2cc(NC(=O)CCCN(C)C)ccc2O[C@@H]1CN(C)Cc1ccc(Oc2ccccc2)cc1		activity change, negative = inhibition (at 135 µM (top of the series)): 18% (inactive)
C[C@H]1CN([C@@H](C)CO)S(=O)(=O)c2ccc(C#Cc3ccccc3F)cc2O[C@@H]1CN(C)C	10.1% (inactive)	
CO[C@H]1CN(C)C(=O)c2ccc(NC(=O)c3ccc(-c4ccccc4)cc3)cc2OC[C@H](C)NC[C@@H]1C	5.28% (inactive)	
COc1ccc(S(=O)(=O)N(C)C[C@H]2Oc3ccc(NC(=O)C4CC4)cc3CC(=O)N([C@H](C)CO)C[C@H]2C)cc1		activity change, negative = inhibition (at 135 µM (top of the series)): -2.76% (inactive)
CO[C@@H]1CN(C)C(=O)c2ccc(NC(=O)c3nc4ccccc4s3)cc2OC[C@@H](C)N(Cc2cccnc2)C[C@H]1C	14.9% (inactive)	
O=C(C[C@@H]1C[C@@H]2c3cc(NC(=O)C4CCC4)ccc3O[C@@H]2[C@@H](CO)O1)NCc1ccc(Cl)cc1	-5.46% (inactive)	
C[C@@H]1CN([C@H](C)CO)C(=O)c2cc(NC(=O)Nc3cccc4ccccc34)ccc2O[C@@H](C)CCCCO[C@H]1CN(C)S(=O)(=O)c1cn(C)cn1		activity change, negative = inhibition (at 135 µM (top of the series)): 33.1% (inactive)
O=C(C[C@@H]1C[C@@H]2c3cc(NC(=O)Nc4ccc(F)cc4)ccc3O[C@@H]2[C@@H](CO)O1)NC1CCCCC1	-8.47% (inactive)	

Structure (SMILES)	activity change, negative = inhibition (at 120 µM (top of the series))	other results
CO[C@H]1CN(C)C(=O)c2ccc(NC(=O)c3nc4ccccc4s3)cc2OC[C@@H](C)N(Cc2ccncc2)C[C@H]1C	20.7% (inactive)	
C[C@@H]1CN([C@@H](C)CO)C(=O)c2cc(NC(=O)Nc3cccc4ccccc34)ccc2O[C@@H](C)CCCCO[C@@H]1CN(C)S(=O)(=O)c1ccc(F)cc1		activity change, negative = inhibition (at 135 µM (top of the series)): 17.6% (inactive)
O=S(=O)(Cc1ccccc1)NCC[C@H]1CC[C@H](NS(=O)(=O)c2ccc(F)cc2)[C@H](CO)O1		activity change, negative = inhibition (at 135 µM (top of the series)): -6.92% (inactive)
C[C@@H]1CN([C@@H](C)CO)C(=O)Cc2cc(NC(=O)CCC(F)(F)F)ccc2O[C@H]1CN(C)Cc1ccc(Oc2ccccc2)cc1		activity change, negative = inhibition (at 135 µM (top of the series)): 8.79% (inactive)
C[C@@H]1CN([C@@H](C)CO)C(=O)Cc2cc(NC(=O)C3CC3)ccc2O[C@@H]1CN(C)Cc1ccc(Cl)c(Cl)c1		activity change, negative = inhibition (at 135 µM (top of the series)): 16.4% (inactive)
O=C(C[C@H]1C[C@@H]2c3cc(NC(=O)Nc4ccc(F)cc4)ccc3O[C@@H]2[C@H](CO)O1)NC1CCCCC1		activity change, negative = inhibition (at 135 µM (top of the series)): -1.13% (inactive)
CO[C@@H]1CN(C)C(=O)c2ccc(NC(=O)c3ccc(-c4ccccc4)cc3)cc2OC[C@H](C)NC[C@@H]1C	17% (inactive)	
Cc1ccc(S(=O)(=O)N(C)C[C@H]2Oc3ccc(NS(C)(=O)=O)cc3C(=O)N([C@@H](C)CO)C[C@H]2C)cc1		activity change, negative = inhibition (at 135 µM (top of the series)): 9.46% (inactive)
C[C@H]1CN([C@@H](C)CO)C(=O)Cc2cc(NC(=O)CCCN(C)C)ccc2O[C@@H]1CN(C)Cc1ccc(Oc2ccccc2)cc1	32.2% (inactive)	
C[C@@H]1CCCCO[C@H](CN(C)S(=O)(=O)c2ccc(F)cc2)[C@H](C)CN([C@@H](C)CO)C(=O)c2cc(NC(=O)Nc3cccc4ccccc34)ccc2O1	22.9% (inactive)	
C[C@@H]1CN([C@H](C)CO)C(=O)Cc2cc(NC(=O)C3CC3)ccc2O[C@@H]1CN(C)Cc1ccc(C(F)(F)F)cc1		activity change, negative = inhibition (at 135 µM (top of the series)): 18% (inactive)
C[C@@H]1CN([C@H](C)CO)S(=O)(=O)c2ccc(C3=CCCCC3)cc2O[C@H]1CN(C)Cc1cccnc1	19% (inactive)	
CO[C@H]1CN(C)C(=O)c2cc(NC(=O)c3nc4ccccc4s3)ccc2OC[C@@H](C)N(Cc2ccncc2)C[C@H]1C	5.99% (inactive)	
C[C@@H]1CN([C@H](C)CO)C(=O)Cc2cc(N(C)C)ccc2O[C@@H]1CN(C)Cc1ccc(-c2ccccc2)cc1	22.5% (inactive)	
C[C@@H]1CN([C@@H](C)CO)C(=O)Cc2cc(NC(=O)c3ccncc3)ccc2O[C@@H]1CN(C)S(=O)(=O)c1cn(C)cn1	37.2% (inactive)	
C[C@H](CO)N1C[C@H](C)[C@@H](CN(C)C(=O)Nc2cccc3ccccc23)Oc2ccc(NC(=O)CCN3CCOCC3)cc2C1=O	38.8% (inactive)	
CCCC#Cc1ccc2c(c1)O[C@H](CN(C)Cc1ccc3c(c1)OCO3)[C@H](C)CN([C@@H](C)CO)S2(=O)=O	25.5% (inactive)	
COc1ccc(-c2ccc([C@H]3[C@H](C#N)N(C(=O)c4cccc(F)c4)[C@H]3CO)cc2)cc1	21.7% (inactive)	
C[C@H]1CN([C@@H](C)CO)S(=O)(=O)c2ccc(C#CC3CCCC3)cc2O[C@@H]1CN(C)Cc1cccnc1		activity change, negative = inhibition (at 60 µM (top of the series)): 7.15% (inactive)
C[C@H]1CN([C@@H](C)CO)C(=O)Cc2cc(NC(=O)C3CC3)ccc2O[C@@H]1CN(C)Cc1ccc(Oc2ccccc2)cc1		activity change, negative = inhibition (at 135 µM (top of the series)): 17.9% (inactive)
